Patent US20060069132A1, “Azolecarboxamide herbicides” (priority 2004, published 2006)

Columns and labels:
[1] = tested on: barnyardgrass; assay: Test B pre-/postemergence herbicide test; format: in vivo, Echinochloa crus-galli; conditions: Postemergence, scale 0 (no effect) to 100 (complete control)
Method in brief: (§1)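 Greenhouse pot assay with simultaneous preemergence (treated seed) and postemergence (2–18 cm seedlings) applications of surfactant-containing, non-phytotoxic solvent formulations. Response scored visually 13–15 days later on a 0–100 scale, 100 meaning complete control.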

[2] = tested on: Surinam grass; assay: Test B pre-/postemergence herbicide test; format: in vivo, Urochloa decumbens
Method in brief: (§2)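 Flooded paddy rice and barnyardgrass were treated at the 2-leaf stage; upland plantings received compound either on sown seed or on 1- to 4-leaf seedlings. All were kept 13–15 days in a greenhouse and scored visually, 0–100, relative to untreated plants.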

[3] = tested on: cocklebur; assay: Test B pre-/postemergence herbicide test; format: in vivo, Xanthium strumarium
Method in brief: as §1

[4] = tested on: corn; assay: Test B pre-/postemergence herbicide test; format: in vivo, Zea mays
Method in brief: as §2

[5] = tested on: large crabgrass; assay: Test B pre-/postemergence herbicide test; format: in vivo, Digitaria sanguinalis
Method in brief: as §2

[6] = tested on: giant foxtail; assay: Test B pre-/postemergence herbicide test; format: in vivo, Setaria faberi
Method in brief: as §2

[7] = tested on: lambsquarters; assay: Test B pre-/postemergence herbicide test; format: in vivo, Chenopodium album
Method in brief: as §2

[8] = tested on: morningglory; assay: Test B pre-/postemergence herbicide test; format: in vivo, Ipomoea coccinea
Method in brief: as §1

[9] = tested on: pigweed; assay: Test B pre-/postemergence herbicide test; format: in vivo, Amaranthus retroflexus
Method in brief: as §2

[10] = tested on: velvetleaf; assay: Test B pre-/postemergence herbicide test; format: in vivo, Abutilon theophrasti
Method in brief: as §2

[11] = tested on: blackgrass; assay: Test B postemergence herbicide test; format: in vivo, Alopecurus myosuroides
Method in brief: (§3)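 Greenhouse test; postemergence application to plants at 1–4 leaves (2–18 cm); paddy species at 2 leaves; evaluated visually vs controls at 13–15 days; scale 0–100 (100 = complete control).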

[12] = tested on: wheat; assay: Test B postemergence herbicide test; format: in vivo, Triticum aestivum; parameters: key to Wheat plant response rating: 0 = no effect, 100 = complete control
Method in brief: (§4)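 Scale 0–100: zero equals no visible effect, 100 complete control, judged by eye relative to controls. Timing: 13 to 15 days in greenhouse post-treatment. Growth stage at spraying: two leaves (paddy) or one to four leaves, 2–18 cm (postemergence).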

[13] = tested on: wild oat; assay: Test B postemergence herbicide test; format: in vivo, Avena fatua
Method in brief: as §4

[14] = tested on: rice; assay: Test B flooded paddy test; format: in vivo, Oryza sativa; conditions: 125 g ai/ha, scale 0 to 100 (0 no effect, 100 complete control)
Method in brief: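 After treating 2-leaf paddy plants or 2–18 cm postemergence plants (1 to 4 leaves) with formulated chemical, researchers kept them in a greenhouse for 13–15 days. Effects were judged visually versus controls: 0 indicates none, 100 total control.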

[15] = tested on: small flower umbrella sedge; assay: Test B flooded paddy test; format: in vivo, Cyperus difformis; conditions: 125 g ai/ha, scale 0 to 100 (0 no effect, 100 complete control)
Method in brief: as §3

[16] = tested on: ducksalad; assay: Test B flooded paddy test; format: in vivo, Heteranthera limosa; conditions: 125 g ai/ha, scale 0 to 100 (0 no effect, 100 complete control)
Method in brief: as §3

[17] = tested on: barnyardgrass; assay: Test B flooded paddy test; format: in vivo, Echinochloa crus-galli; conditions: 125 g ai/ha, scale 0 to 100 (0 no effect, 100 complete control)
Method in brief: as §3

[18] = Postemergence, 500 g ai/ha, scale 0 (no effect) to 100 (complete control)
[19] = postemergence, 125 g ai/ha, scale 0 to 100
[20] = 500 g ai/ha, scale 0 to 100, 0 no effect, 100 complete control, preemergence

For `Cc1nn(C(C)(C)C)nc1C(=O)Nc1cccc(C(=O)N(C)C)n1` [Compound 436], the “Barnyardgrass plant response rating” value ([1]; 125 g ai/ha) was 0, the “Barnyardgrass plant response rating” value ([1]; 500 g ai/ha) was 0 and the “Surinam Grass plant response rating” value [2, 18] was 0. The “Surinam Grass plant response rating” value [2, 19] was 0, the “Cocklebur plant response rating” value [3, 18] was 10 and the “Cocklebur plant response rating” value [3, 19] was 0. For the same compound, the “Corn plant response rating” value [4, 18] was 10, the “Corn plant response rating” value [4, 19] was 0 and the “Crabgrass, Large plant response rating” value [5, 18] was 0. For the same compound, the “Crabgrass, Large plant response rating” value [5, 19] was 0, the “Foxtail, Giant plant response rating” value [6, 18] was 0 and the “Foxtail, Giant plant response rating” value [6, 19] was 0. For the same compound, the “Lambsquarters plant response rating” value [7, 18] was 0, the “Lambsquarters plant response rating” value [7, 19] was 0 and the “Morningglory plant response rating” value [8, 18] was 0. The “Morningglory plant response rating” value [8, 19] was 0, the “Pigweed plant response rating” value [9, 18] was 10 and the “Pigweed plant response rating” value [9, 19] was 0. The “Velvetleaf plant response rating” value [10, 18] was 30, the “Velvetleaf plant response rating” value [10, 19] was 0 and the “Blackgrass plant response rating” value [11, 18] was 0. The “Blackgrass plant response rating” value [11, 19] was 0, the “Wheat plant response rating” value [12, 20] was 20 and the “Wheat plant response rating” value [12, 18] was 20. The “Wheat plant response rating” value [12, 19] was 10, the “Oat, Wild plant response rating” value [13, 18] was 30 and the “Oat, Wild plant response rating” value [13, 19] was 10. For the same compound, the “Rice plant response rating” value [14] was 0, the “Sedge, Umbrella plant response rating” value [15] was 0 and the “Ducksalad plant response rating” value [16] was 0. For the same compound, the “Barnyardgrass plant response rating” value [17] was 0.
`CCNC(=O)c1cccc(NC(=O)c2nn(C(C)(C)C)nc2C)n1` [Compound 437] was tested, and the “Barnyardgrass plant response rating” value ([1]; 125 g ai/ha) was 0, the “Barnyardgrass plant response rating” value ([1]; 500 g ai/ha) was 30 and the “Surinam Grass plant response rating” value [2, 18] was 20. For the same compound, the “Surinam Grass plant response rating” value [2, 19] was 0, the “Cocklebur plant response rating” value [3, 18] was 30 and the “Cocklebur plant response rating” value [3, 19] was 10. The “Corn plant response rating” value [4, 18] was 30, the “Corn plant response rating” value [4, 19] was 0 and the “Crabgrass, Large plant response rating” value [5, 18] was 20. For the same compound, the “Crabgrass, Large plant response rating” value [5, 19] was 0, the “Foxtail, Giant plant response rating” value [6, 18] was 30 and the “Foxtail, Giant plant response rating” value [6, 19] was 0. The “Lambsquarters plant response rating” value [7, 18] was 40, the “Lambsquarters plant response rating” value [7, 19] was 20 and the “Morningglory plant response rating” value [8, 18] was 30. For the same compound, the “Morningglory plant response rating” value [8, 19] was 0, the “Pigweed plant response rating” value [9, 18] was 30 and the “Pigweed plant response rating” value [9, 19] was 20. For the same compound, the “Velvetleaf plant response rating” value [10, 18] was 20, the “Velvetleaf plant response rating” value [10, 19] was 0 and the “Blackgrass plant response rating” value [11, 18] was 30. The “Blackgrass plant response rating” value [11, 19] was 0, the “Wheat plant response rating” value [12, 20] was 0 and the “Wheat plant response rating” value [12, 18] was 20. The “Oat, Wild plant response rating” value [13, 18] was 30, the “Rice plant response rating” value [14] was 0 and the “Sedge, Umbrella plant response rating” value [15] was 0. The “Ducksalad plant response rating” value [16] was 0 and the “Barnyardgrass plant response rating” value [17] was 0.
In the case of `C=CCNC(=O)c1cccc(NC(=O)c2nn(C(C)(C)C)nc2C)n1` [Compound 438], the “Barnyardgrass plant response rating” value ([1]; 125 g ai/ha) is reported as 0, the “Barnyardgrass plant response rating” value ([1]; 500 g ai/ha) is reported as 0 and the “Surinam Grass plant response rating” value [2, 18] is reported as 0. For the same compound, the “Surinam Grass plant response rating” value [2, 19] was 0, the “Cocklebur plant response rating” value [3, 18] was 20 and the “Cocklebur plant response rating” value [3, 19] was 20. For the same compound, the “Corn plant response rating” value [4, 18] was 40, the “Corn plant response rating” value [4, 19] was 30 and the “Crabgrass, Large plant response rating” value [5, 18] was 0. The “Crabgrass, Large plant response rating” value [5, 19] was 0, the “Foxtail, Giant plant response rating” value [6, 18] was 20 and the “Foxtail, Giant plant response rating” value [6, 19] was 0. For the same compound, the “Lambsquarters plant response rating” value [7, 18] was 10, the “Lambsquarters plant response rating” value [7, 19] was 10 and the “Morningglory plant response rating” value [8, 18] was 50. The “Morningglory plant response rating” value [8, 19] was 40, the “Pigweed plant response rating” value [9, 18] was 30 and the “Pigweed plant response rating” value [9, 19] was 10. For the same compound, the “Velvetleaf plant response rating” value [10, 18] was 30, the “Velvetleaf plant response rating” value [10, 19] was 0 and the “Blackgrass plant response rating” value [11, 18] was 30. The “Blackgrass plant response rating” value [11, 19] was 20, the “Wheat plant response rating” value [12, 20] was 0 and the “Wheat plant response rating” value [12, 18] was 30. The “Wheat plant response rating” value [12, 19] was 20, the “Oat, Wild plant response rating” value [13, 18] was 40 and the “Oat, Wild plant response rating” value [13, 19] was 30. For the same compound, the “Rice plant response rating” value [14] was 0, the “Sedge, Umbrella plant response rating” value [15] was 0 and the “Ducksalad plant response rating” value [16] was 0. The “Barnyardgrass plant response rating” value [17] was 0.
